Measured values as given in PubChem BioAssay (NCI).
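Five compound concentrations were applied to cells in 96-well plates for 48 hours; endpoints were derived by simple linear interpolation of the resulting dose-response curve. The concentration for 50% growth inhibition is given as GI50. TGI is the concentration that stops growth completely.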 *1 amine or outer side, *2 acyl side, *3 side chain or, on linkers, in order; H or OH if unused. Where a SMILES comes first, the peptide text is derived from it. The star is where a group is joined. γGlu = O=C(O)[CH](CCC(=O)[*:2])N[*:1]; Cbz = O=C(OCc1ccccc1)*; NHOH = ON*

How the values were obtained:
Assay in all cases: inhibition of tumour cell growth, NCI panel, 48 h
[1] = tested on: DU-145 prostate
[2] = tested on: HOP-62 NSCLC
[3] = tested on: CAKI-1 renal
[4] = tested on: NCI/ADR-RES ovarian
[5] = tested on: BT-549 breast
[6] = tested on: SW-620 colon
[7] = tested on: A549 NSCLC
[8] = tested on: SK-MEL-28 melanoma
[9] = tested on: NCI-H460 lung
[10] = tested on: SR leukemia

| Structure (SMILES) | TGI [1] [µM] | TGI [2] [µM] | TGI [3] [µM] | TGI [4] [µM] | TGI [5] [µM] | TGI [6] [µM] | TGI [7] [µM] | TGI [8] [µM] | TGI [9] [µM] | GI50 [10] [µM] | TGI [10] [µM] | GI50 [3] [µM] | GI50 [4] [µM] | GI50 [5] [µM] | GI50 [6] [µM] | GI50 [9] [µM] |
| --- | --- | --- | --- | --- | --- | --- | --- | --- | --- | --- | --- | --- | --- | --- | --- | --- |
| COc1cc(O)c2c(=O)c3cccc(C)c3[nH]c2c1 | > 10 | > 10 | > 10 | > 10 | > 10 | > 10 | > 10 | > 10 | > 10 | – | – | – | – | – | – | – |
| NC(CCC(=O)NC(CCC(=O)NO)C(=O)NCC(=O)O)C(=O)O (configuration not stated) (γGlu-Glu(NHOH)-Gly-OH; configuration not given here) | > 100 | > 100 | > 100 | > 100 | > 100 | > 100 | > 100 | > 100 | > 100 | – | – | – | – | – | – | – |
| CCOC(=O)CCCN | > 100 | > 100 | > 100 | > 100 | > 100 | > 100 | > 100 | > 100 | > 100 | – | – | – | – | – | – | – |
| COc1ccc(-c2nc(-c3nc4cc(Cl)c(Cl)cc4[nH]3)c3ccccn23)cc1 | – | – | > 100 | > 100 | 9.48 | > 100 | – | – | > 100 | 6.26 | > 100 | 3.32 | 3.9 | 3.08 | 8.37 | 3.01 |
| CCOC(=O)CCC(NC(=O)C(CC(=O)OC)NC(=O)OCc1ccccc1)C(=O)NC(CC(=O)OC)C(=O)NC(CCC(=O)OCC)C(=O)NC(CC(=O)OC)C(=O)NC(CCC(=O)OCC)C(=O)NC(CC(=O)OCC)C(=O)OCC (configuration not stated) (Cbz-D(OMe)E(OEt)D(OMe)E(OEt)D(OMe)E(OEt)D(OEt)-OEt; configuration not given here) | > 100 | > 100 | – | – | > 100 | > 100 | > 100 | – | > 100 | – | > 100 | – | – | – | – | – |
| CC(C)NC1CCCCC2c3ccccc3C12O (configuration not stated) | – | > 100 | – | – | – | > 100 | > 100 | > 100 | > 100 | – | > 100 | – | – | – | – | – |
| CCOC(=O)N1CCC2(CC1)C[C@](Sc1ccccc1)(C(C)=O)[C@H](C)O2 | > 100 | > 100 | > 100 | > 100 | – | > 100 | > 100 | > 100 | > 100 | – | > 100 | – | – | – | – | – |
| COc1ccc(Nc2nc3ccccc3nc2-c2cccs2)cc1OC | > 10 | > 10 | > 10 | > 10 | – | > 10 | > 10 | > 10 | > 10 | – | > 10 | – | – | – | – | – |
| C#CCOC(=O)C=[N+]=[N-] | > 10 | > 10 | – | – | > 10 | > 10 | > 10 | > 10 | > 10 | – | > 10 | – | – | – | – | – |
| [N-]=[N+]=NC1C(Cl)C(=O)NC(=O)N1[C@H]1C[C@H](O)[C@@H](CO)O1 (some centres not stated) | – | > 100 | > 100 | – | – | > 100 | > 100 | > 100 | > 100 | – | – | – | – | – | – | – |
| CN(C)CC1CCC/C(=C\c2ccc(Cl)c(Cl)c2)C1=O (configuration not stated) | 23 | 26.8 | 7.7 | 22.8 | 5.01 | > 29.3 | 30.4 | 11.4 | 28 | – | – | – | – | – | – | – |
| O=NN(CC1(O)OCC(O)C(O)C1O)C(Cc1c[nH]c2ccccc12)C(=O)O (configuration not stated) | – | > 100 | – | – | – | > 100 | > 100 | > 100 | > 100 | – | – | – | – | – | – | – |
| COC(=O)c1sc2nc(Nc3ccccc3)c(=Nc3ccccc3)sc2c1C | > 100 | > 100 | > 100 | > 100 | – | > 100 | > 100 | > 100 | > 100 | – | > 100 | – | – | – | – | – |
| Cc1cnoc1/N=C1\C=C(Nc2oncc2C)C(=O)c2ccccc21 | – | > 100 | > 100 | – | – | > 100 | > 100 | > 100 | > 100 | – | > 100 | – | – | – | – | – |
| CC1=NN(c2ccccc2)C(=O)/C1=C1\SC(c2ccccc2)(c2ccccc2)c2ccccc21 | > 100 | > 100 | > 100 | > 100 | > 100 | > 100 | > 100 | > 100 | > 100 | – | – | – | – | – | – | – |
| Cc1c2ccccc2c(=O)n2c(-c3ccccn3)cccc12 | – | > 100 | > 100 | – | – | > 100 | > 100 | > 100 | > 100 | – | > 100 | – | – | – | – | – |
| C/C(=N/NC(=S)N1CCCCCC1)c1cccc(/C(C)=N\NC(=S)N2CCCCCC2)n1 | 6.04 | 3.82 | – | 3.86 | – | 3.55 | 4.86 | 6 | 6.78 | – | 5.84 | – | – | – | – | – |
| c1ccc(C/C(=N\Nc2nc3ccccc3[nH]2)c2ccccn2)cc1 | 27.7 | 12.6 | 1.52 | 0.0936 | 16.1 | 15.1 | 11.9 | 11 | 11.3 | – | – | – | – | – | – | – |
